From patent US20240239806A1, “COMPOUNDS, COMPOSITIONS AND METHODS OF TREATING DISORDERS” (Chengdu Anticancer Bioscience, Ltd., priority 2021, published 2024) come the findings set out here.

Molecules are shown by their SMILES. Like-named read-outs stand apart in the source and are kept apart here.

What all share (assay type): cell-based
Experiment [1] has as its system RPEMYC^H2B-GFP cells. Put plainly: Phenotypic screening assay (mitotic arrest, polyploidy). Particulars: 1 nM to 30 μM; for IC50: read-out: Proliferative arrest (>50%). The essentials:
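RPE cells expressing MYC and H2B-EGFP treated with compound at 1 nM–30 μM; mitotic index scored at 24 h and polyploidy (DNA content) at 48 h by automated imaging, with reads at 24, 48 or 72 h. Hits show transient mitotic arrest followed by polyploid accumulation.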

Experiment [2] concerns A549. Description: MECP in cancer cell line. Particulars: Homo sapiens. Here is the method: (§1) Six lung cancer cell lines (NCI-H23, NCI-H460, NCI-H596, NCI-H2170, Calu-6 and A549), two colon cancer cell lines (HCT116 and SW460), one breast cancer cell line MDA-MB-231, one gastric cancer cell line NCI-N87, one prostate cancer cell line DU145, one cervical cancer cell line Hela, and one glioblastoma cell line T98G were obtained from ATCC. The T2 HCC cell line was derived from a mouse liver cancer model initiated by a transgene of MYC. All cell lines were cultured in DMEM (Gibco, Cleveland, TN, USA) supplemented with 5% fetal bovine serum (Gibco), penicillin (100 U/mL)—streptomycin (100 μg/mL) (Gibco, Cat. No. 15140-122), 2 mM L-glutamine (Gibco, 200 mM solution, Cat. No. 25030081), and 1 mM sodium pyruvate (Gibco, 100 mM solution, Cat. No. 11360070) at 37° C. in a humidified incubator that was maintained at 5% CO2.
(§2) We have previously developed a mechanism-informed phenotypic screening assay to identify novel antimitotic agents. Equipped with a prior understanding of the versatile functions of the chromosomal passenger protein (CPP) complex in orchestrating karyokinesis and cytokinesis, the screening assay is to score for phenotypes typically seen when the CPP complex is disabled. Specifically, the parameters for a positive hit are a temporary elevation of mitotic index (MI) at 24 hours of drug treatment and an accumulation of polyploid cells at 48 hours of drug treatment, indicative of mitotic arrest and cytokinetic failure respectively. These parameters exclude compounds that elicit only a prolonged arrest of cells in mitosis, a phenotype typically provoked by spindle toxins. The screening procedure is briefly summarized here. RPEMYC^H2B-GFP cells engineered to express a Histone 2B-EGFP fusion protein were passaged as batches of 96-well plates, 18-24 hours before exposure to the chemical compounds of the present disclosure at concentrations from 1 nM to 30 μM. At 24, 48 or 72 hours after initiation of treatment, cells were analyzed for either an arrest in mitosis or a change in DNA content by GE IN-Cell Analyzer 2000. As set forth in Table 2 below, a value of greater than or equal to 1 nM and less than or equal to 1.0 μM is marked “A”; a value greater than 1.00 μM and less than or equal to 10.0 μM is marked “B”; a value greater than 10.0 μM and less than or equal to 30.0 μM is marked “C”; and a value greater than 30.0 μM is marked “D.”

The subject of experiment [3] is HCT116. Description: MECP in cancer cell line. The following applies: Homo sapiens, HCT-116. Here is the method:
as §1, §2

Experiment [4] deals with Hela. Description: MECP in cancer cell line. The following applies: Homo sapiens. Here is the method:
as §1, §2

Experiment [5] deals with MDA-MB-231. Put plainly: MECP in cancer cell line. Particulars: Homo sapiens. Here is the method: as §1, §2
Experiment [6] has as its system SW480. Put plainly: MECP in cancer cell line. The following applies: Homo sapiens. Here is the method:
as §1, §2

The subject of experiment [7] is T2 HCC. Put plainly: MECP in cancer cell line. Particulars: Mus musculus. Here is the method:
as §1, §2

For experiment [8], the system named is NCI-H23. Put plainly: MECP in cancer cell line. The following applies: Homo sapiens. Here is the method:
as §1, with “CO2. […]” for “CO2.”

Experiment [9] deals with NCI-N87. Description: MECP in cancer cell line. The following applies: Homo sapiens. Here is the method: as §1, with “CO2. […]” for “CO2.”
Experiment [10] concerns A549. Description: MTT assay of cellular proliferation. Particulars: Homo sapiens, 50% inhibition of cellular proliferation. Here is the method:
as §1
(§3) The MTT assay measures cellular metabolic activity as a proxy for cell viability and involves the conversion of the water-soluble yellow dye MTT [3-(4,5-dimethylthiazol-2-yl)-2,5-diphenyltetrazolium bromide] into an insoluble purple formazan by the action of mitochondrial reductase. Formazan is then solubilized and its concentration is determined by measuring the optical density (OD) value at a wavelength of 570 nm. The value is in proportional to the number of live cells with excellent linearity up to ˜10^6 cells per well. The MTT assay was used to determine the EC50 value, the concentration of a compound that leads to 50% inhibition of cellular proliferation. Briefly, cells were split when growing to the mid-Log phase. Cells in 100 μL of culture medium were seeded into each well of 96-well microplates and cultivated for 15-24 hours to reach a confluence of 20-30% and were then exposed to drugs at concentrations ranging from 1 nM to 30 μM. At the endpoint, 20 μL of a MTT stock solution in DMSO (5 mg/mL) was added to each well that contains 100 μL of DMEM. The microplates were left in the cell culture incubator for 3-4 h before subjected to solubilization and determination of formazan at A570 in a microplate reader (BioTek ELX808iu). […] Therefore, these compounds might hold a broad utility in the treatment of a large variety of human malignancies.
(Formazan colour is commonly taken as a measure of viable cells.)

For experiment [11], the system named is HCT116. Description: MTT assay of cellular proliferation. Particulars: Homo sapiens, HCT-116, 50% inhibition of cellular proliferation. Here is the method:
as §1, §3

For experiment [12], the system named is Hela. Put plainly: MTT assay of cellular proliferation. The following applies: Homo sapiens, 50% inhibition of cellular proliferation. Here is the method: as §1, §3
Experiment [13] relates to MDA-MB-231. Put plainly: MTT assay of cellular proliferation. Particulars: Homo sapiens; MDA-MB-231, MTT, 50% inhibition of cellular proliferation. Here is the method:
as §1, §3

Experiment [14] concerns NCI-H23. Put plainly: MTT assay of cellular proliferation. The following applies: Homo sapiens, 50% inhibition of cellular proliferation. Here is the method:
as §1, §3

Experiment [15] has as its system NCI-N87. Description: MTT assay of cellular proliferation. Particulars: Homo sapiens, 50% inhibition of cellular proliferation. Here is the method: as §1, §3
The test system of experiment [16] is SW480. Description: MTT assay of cellular proliferation. The following applies: Homo sapiens, 50% inhibition of cellular proliferation. Here is the method: as §1, §3
In experiment [17] the test system is T2 HCC. Put plainly: MTT assay of cellular proliferation. Particulars: Mus musculus, 50% inhibition of cellular proliferation. Here is the method: as §1, §3
The mark [18] stands for this setting: read-out: Min. Effective conc. for Polyploidy (≥5%).

As a reminder, the EC50 is the concentration that produces a half-maximal response. Low readings indicate a more potent agent, high ones a less potent agent. Regarding `COc1cc(NC(C)=O)cc(Oc2ccnc3ccc(F)cc23)c1` [Compound 20, N-(3-((6-fluoroquinolin-4-yl)oxy)-5-methoxyphenyl)acetamide], the minimal effective concentration in [1] (setting [18]), in experiment [1] (read-out: Mitotic Arrest (≥5%)), in [2], in [3], in experiment [4] and in [5] was 0.001 to 1 µM in each case. For the same molecule, the minimal effective concentration in [6], in experiment [7], in experiment [8] and in [9] was 0.001 to 1 µM throughout. The IC50 in experiment [1] was in the range of 1 to 1000 nM. For the same molecule, the EC50 in [10], in experiment [11], in [12], in experiment [13], in experiment [14] and in experiment [15] was 1 to 1000 nM each time. Further, the EC50 in experiment [16] and in experiment [17] was 1 to 1000 nM throughout.

On to `COc1cc(NC(C)=O)cc(Oc2ccnc3ccc(Br)cc23)c1` [Compound 22, N-(3-((6-bromoquinolin-4-yl)oxy)-5-methoxyphenyl)acetamide], for which the minimal effective concentration in experiment [1] (setting [18]), in experiment [1] (read-out: Mitotic Arrest (≥5%)), in [2], in experiment [3], in experiment [4] and in [5] was 0.001 to 1 µM in each case. The minimal effective concentration in experiment [6], in [7], in experiment [8] and in experiment [9] was 0.001 to 1 µM in each case. In addition, in [1], the IC50 was in the range of 1 to 1000 nM. In addition, the EC50 in experiment [10], in experiment [11], in [12], in [13], in [14] and in [15] was 1 to 1000 nM throughout. For the same molecule, the 50% effective concentration (EC50) in [16] and in experiment [17] was 1 to 1000 nM each time.

Consider `COc1cc(NC(C)=O)cc(Oc2ccnc3cc(OC)c(OC)cc23)c1` [Compound 27, N-(3-((6,7-dimethoxyquinolin-4-yl)oxy)-5-methoxyphenyl)acetamide], for which, in [1], the “Min. Effective conc. for Polyploidy (≥5%)” value is “B (a value greater than 1.00 μM and less than or equal to 10.0 μM)”. Besides, the “Mitotic Arrest (≥5%)” value in [1] is “B (a value greater than 1.00 μM and less than or equal to 10.0 μM)”. Also, the “Proliferative arrest (>50%)” value in experiment [1] is “B (a value greater than 1.00 μM and less than or equal to 10.0 μM)”. Besides, the “Along with Cell Death” value in experiment [1] (listed as 23) is “B (a value greater than 1.00 μM and less than or equal to 10.0 μM)”. Further, the minimal effective concentration in experiment [1] (setting [18]), in experiment [1] (read-out: Mitotic Arrest (≥5%)), in experiment [2], in [3], in experiment [4] and in [5] was 0.001 to 1 µM each time. For the same molecule, the minimal effective concentration in experiment [6], in experiment [7], in experiment [8] and in [9] was 0.001 to 1 µM in each case. In addition, the IC50 in [1] fell in the range of 1 to 1000 nM. Further, the EC50 in experiment [10], in [11], in [12], in experiment [13], in experiment [14] and in experiment [15] was 1 to 1000 nM throughout. Moreover, the concentration for a half-maximal effect (EC50) in experiment [16] and in experiment [17] was 1 to 1000 nM throughout.

Take `COc1cc(Oc2ccnc3cc(OC)c(C(N)=O)cc23)cc(-n2cccn2)c1` [Compound 30, 7-methoxy-4-(3-methoxy-5-(1H-pyrazol-1-yl)phenoxy)quinoline-6-carboxamide]: in experiment [1], the “Min. Effective conc. for Polyploidy (≥5%)” value is listed as “D (a value greater than 30.0 μM)”. For the same molecule, in [1], the “Mitotic Arrest (≥5%)” value is reported as “D (a value greater than 30.0 μM)”. In addition, the “Proliferative arrest (>50%)” value in experiment [1] is recorded as “D (a value greater than 30.0 μM)”. Moreover, in experiment [1] (listed as 25), the “Along with Cell Death” value was “D (a value greater than 30.0 μM)”. Besides, the minimal effective concentration in experiment [1] (setting [18]), in [1] (read-out: Mitotic Arrest (≥5%)), in experiment [2], in experiment [3], in experiment [4] and in [5] was 0.001 to 1 µM in each case. In addition, the minimal effective concentration in experiment [6], in experiment [7], in experiment [8] and in [9] was 0.001 to 1 µM in each case. For the same molecule, in experiment [1], the IC50 was in the range of 1 to 1000 nM. The concentration for a half-maximal effect (EC50) in experiment [10], in experiment [11], in experiment [12], in experiment [13], in [14] and in experiment [15] was 1 to 1000 nM each time. For the same molecule, the concentration giving a half-maximal response (EC50) in experiment [16] and in [17] was 1 to 1000 nM throughout.
